Drawing on the NIST ThermoML archive (doi:10.1016/j.jct.2014.12.027), this text covers activity coefficient for 28 compounds.

± gives the expanded uncertainty stated by the source.

This data set can be described thus: activity coefficient (dimensionless); of the first substance listed, at infinite dilution; xn = mol fraction of the nth substance listed. To be noted: 101 kPa, Liquid, Chromatography, x1 = 0.

In the case of `Cc1ccccc1C` [1,2-dimethylbenzene] + CCCC[n+]1ccc(C)cc1.N#CC(=C=[N-])C#N, the activity coefficient runs as follows: (318.15 K) 1.4 ± 0.09; (328.15 K) 1.45 ± 0.1; (338.15 K) 1.49 ± 0.1; (348.15 K) 1.56 ± 0.1; (358.15 K) 1.61 ± 0.11; (368.15 K) 1.66 ± 0.11.

On to `Cc1cccc(C)c1` [1,3-dimethylbenzene] + CCCC[n+]1ccc(C)cc1.N#CC(=C=[N-])C#N, for which the activity coefficient worked out at 1.71 ± 0.11 (328.15 K); 1.76 ± 0.12 (338.15 K); 1.82 ± 0.12 (348.15 K); 1.88 ± 0.13 (358.15 K); 1.94 ± 0.13 (368.15 K).

Turning to `Cc1ccc(C)cc1` [1,4-dimethylbenzene] + CCCC[n+]1ccc(C)cc1.N#CC(=C=[N-])C#N, the activity coefficient reads like this: (328.15 K) 1.66 ± 0.11; (338.15 K) 1.71 ± 0.11; (348.15 K) 1.79 ± 0.12; (358.15 K) 1.84 ± 0.12; (368.15 K) 1.9 ± 0.13.

For `C1COCCO1` [1,4-dioxane] + CCCC[n+]1ccc(C)cc1.N#CC(=C=[N-])C#N, the activity coefficient is, setting by setting: (318.15 K) 0.573 ± 0.041; (328.15 K) 0.601 ± 0.042; (338.15 K) 0.624 ± 0.043; (348.15 K) 0.656 ± 0.045; (358.15 K) 0.68 ± 0.046; (368.15 K) 0.708 ± 0.047.

On to `C#CCCCCC` [1-heptyne] + CCCC[n+]1ccc(C)cc1.N#CC(=C=[N-])C#N, for which the activity coefficient reads like this: (318.15 K) 4.09 ± 0.28; (328.15 K) 4.15 ± 0.28; (338.15 K) 4.22 ± 0.29; (348.15 K) 4.29 ± 0.29; (358.15 K) 4.34 ± 0.3; (368.15 K) 4.43 ± 0.3.

In the case of `C#CCCCC` [1-hexyne] + CCCC[n+]1ccc(C)cc1.N#CC(=C=[N-])C#N, the activity coefficient was found to be 2.98 ± 0.2 (318.15 K); 3.04 ± 0.21 (328.15 K); 3.1 ± 0.21 (338.15 K); 3.17 ± 0.22 (348.15 K); 3.25 ± 0.22 (358.15 K); 3.3 ± 0.22 (368.15 K).

For `CCC[N+](=O)[O-]` [1-nitropropane] + CCCC[n+]1ccc(C)cc1.N#CC(=C=[N-])C#N, the activity coefficient (328.15 K) was 0.748 ± 0.049; the activity coefficient (338.15 K) was 0.756 ± 0.05; the activity coefficient (348.15 K) came to 0.769 ± 0.05; the activity coefficient (358.15 K) amounted to 0.783 ± 0.051; the activity coefficient (368.15 K) is 0.792 ± 0.052.

Regarding `CC(C)CO` [2-methyl-1-propanol] + CCCC[n+]1ccc(C)cc1.N#CC(=C=[N-])C#N, the activity coefficient was found to be 1.33 ± 0.086 (318.15 K); 1.23 ± 0.079 (328.15 K); 1.16 ± 0.074 (338.15 K); 1.11 ± 0.07 (348.15 K); 1.06 ± 0.067 (358.15 K); 1.02 ± 0.064 (368.15 K).

With `CC(C)=O` [acetone] + CCCC[n+]1ccc(C)cc1.N#CC(=C=[N-])C#N, the activity coefficient by setting is: (318.15 K) 0.598 ± 0.042; (328.15 K) 0.617 ± 0.043; (338.15 K) 0.634 ± 0.044; (348.15 K) 0.656 ± 0.045; (358.15 K) 0.672 ± 0.046; (368.15 K) 0.686 ± 0.046.

Regarding `CC#N` [acetonitrile] + CCCC[n+]1ccc(C)cc1.N#CC(=C=[N-])C#N, the activity coefficient is 0.584 ± 0.041 (318.15 K); 0.59 ± 0.04 (328.15 K); 0.593 ± 0.042 (338.15 K); 0.599 ± 0.042 (348.15 K); 0.604 ± 0.042 (358.15 K); 0.613 ± 0.043 (368.15 K).

As to `c1ccccc1` [benzene] + CCCC[n+]1ccc(C)cc1.N#CC(=C=[N-])C#N, the activity coefficient runs as follows: (318.15 K) 0.889 ± 0.057; (328.15 K) 0.916 ± 0.058; (338.15 K) 0.937 ± 0.059; (348.15 K) 0.976 ± 0.061; (358.15 K) 1 ± 0.06; (368.15 K) 1.02 ± 0.06.

For `CCCCO` [butan-1-ol] + CCCC[n+]1ccc(C)cc1.N#CC(=C=[N-])C#N, the activity coefficient (318.15 K) came to 1.31 ± 0.09; the activity coefficient (328.15 K) came to 1.23 ± 0.08; the activity coefficient (338.15 K) was determined as 1.17 ± 0.07; the activity coefficient (348.15 K) was found to be 1.13 ± 0.07; the activity coefficient (358.15 K) is 1.09 ± 0.07; the activity coefficient (368.15 K) was 1.05 ± 0.07.

Take `C1CCCCCC1` [cycloheptane] + CCCC[n+]1ccc(C)cc1.N#CC(=C=[N-])C#N: the activity coefficient reads like this: (318.15 K) 12.8 ± 0.9; (328.15 K) 12.1 ± 0.8; (338.15 K) 11.7 ± 0.8; (348.15 K) 11.1 ± 0.8; (358.15 K) 10.6 ± 0.7; (368.15 K) 10.3 ± 0.7.

For `C1CCCCC1` [cyclohexane] + CCCC[n+]1ccc(C)cc1.N#CC(=C=[N-])C#N, the activity coefficient was 11.1 ± 0.8 (318.15 K); 10.5 ± 0.7 (328.15 K); 10 ± 0.7 (338.15 K); 9.57 ± 0.65 (348.15 K); 9.07 ± 0.62 (358.15 K); 8.65 ± 0.59 (368.15 K).

As for `CCCCCCCCCC` [decane] + CCCC[n+]1ccc(C)cc1.N#CC(=C=[N-])C#N, the activity coefficient reads like this: (318.15 K) 90.4 ± 6.2; (328.15 K) 83 ± 5.7; (338.15 K) 76.5 ± 5.2; (348.15 K) 72.6 ± 5; (358.15 K) 67.7 ± 4.6; (368.15 K) 62.8 ± 4.3.

For `CCO` [ethanol] + CCCC[n+]1ccc(C)cc1.N#CC(=C=[N-])C#N, the activity coefficient amounted to 0.917 ± 0.058 (318.15 K); 0.876 ± 0.056 (328.15 K); 0.838 ± 0.054 (338.15 K); 0.812 ± 0.053 (348.15 K); 0.784 ± 0.051 (358.15 K); 0.755 ± 0.05 (368.15 K).

For `CCOC(C)=O` [ethyl acetate] + CCCC[n+]1ccc(C)cc1.N#CC(=C=[N-])C#N, the activity coefficient is, setting by setting: (318.15 K) 1.3 ± 0.08; (328.15 K) 1.33 ± 0.09; (338.15 K) 1.36 ± 0.09; (348.15 K) 1.4 ± 0.09; (358.15 K) 1.42 ± 0.09; (368.15 K) 1.46 ± 0.1.

`CCc1ccccc1` [ethylbenzene] + CCCC[n+]1ccc(C)cc1.N#CC(=C=[N-])C#N: the activity coefficient (318.15 K) was found to be 1.78 ± 0.12; the activity coefficient (328.15 K) amounted to 1.83 ± 0.12; the activity coefficient (338.15 K) stood at 1.87 ± 0.13; the activity coefficient (348.15 K) came out at 1.93 ± 0.13; the activity coefficient (358.15 K) amounted to 1.98 ± 0.13; the activity coefficient (368.15 K) was 2.01 ± 0.14.

In the case of `CCCCCCC` [heptane] + CCCC[n+]1ccc(C)cc1.N#CC(=C=[N-])C#N, the activity coefficient reads like this: (318.15 K) 33.7 ± 2.3; (328.15 K) 31.3 ± 2.1; (338.15 K) 29.7 ± 2; (348.15 K) 27.6 ± 1.9; (358.15 K) 25.8 ± 1.8; (368.15 K) 24.7 ± 1.7.

With `C=CCCCC` [hex-1-ene] + CCCC[n+]1ccc(C)cc1.N#CC(=C=[N-])C#N, the activity coefficient (318.15 K) stood at 11.1 ± 0.8; the activity coefficient (328.15 K) was 10.5 ± 0.7; the activity coefficient (338.15 K) was determined as 10.2 ± 0.7; the activity coefficient (348.15 K) was determined as 9.72 ± 0.66; the activity coefficient (358.15 K) came to 9.17 ± 0.63; the activity coefficient (368.15 K) was 8.75 ± 0.6.

`CCCCCC` [hexane] + CCCC[n+]1ccc(C)cc1.N#CC(=C=[N-])C#N: the activity coefficient (318.15 K) came to 24.3 ± 1.7; the activity coefficient (328.15 K) was determined as 23 ± 1.6; the activity coefficient (338.15 K) was 22.1 ± 1.5; the activity coefficient (348.15 K) stood at 20.8 ± 1.4; the activity coefficient (358.15 K) was 20 ± 1.4; the activity coefficient (368.15 K) worked out at 19.1 ± 1.3.

In the case of `CO` [methanol] + CCCC[n+]1ccc(C)cc1.N#CC(=C=[N-])C#N, the activity coefficient was found to be 0.663 ± 0.045 (318.15 K); 0.644 ± 0.044 (328.15 K); 0.625 ± 0.043 (338.15 K); 0.612 ± 0.043 (348.15 K); 0.593 ± 0.042 (358.15 K); 0.58 ± 0.041 (368.15 K).

Turning to `CC1CCCCC1` [methylcyclohexane] + CCCC[n+]1ccc(C)cc1.N#CC(=C=[N-])C#N, the activity coefficient (318.15 K) was 15.8 ± 1.1; the activity coefficient (328.15 K) was determined as 14.8 ± 1; the activity coefficient (338.15 K) is 13.9 ± 1; the activity coefficient (348.15 K) stood at 13.4 ± 0.9; the activity coefficient (358.15 K) came out at 12.7 ± 0.9; the activity coefficient (368.15 K) stood at 12.1 ± 0.8.

As to `CCCCCCCCC` [nonane] + CCCC[n+]1ccc(C)cc1.N#CC(=C=[N-])C#N, the activity coefficient was 65.1 ± 4.5 (318.15 K); 59.1 ± 4 (328.15 K); 55.7 ± 3.8 (338.15 K); 51.2 ± 3.5 (348.15 K); 47.6 ± 3.3 (358.15 K); 45.8 ± 3.1 (368.15 K).

Regarding `C=CCCCCCC` [oct-1-ene] + CCCC[n+]1ccc(C)cc1.N#CC(=C=[N-])C#N, the activity coefficient (318.15 K) worked out at 21.3 ± 1.5; the activity coefficient (328.15 K) is 20.3 ± 1.4; the activity coefficient (338.15 K) came out at 19.7 ± 1.3; the activity coefficient (348.15 K) came to 18.9 ± 1.3; the activity coefficient (358.15 K) came out at 18.3 ± 1.3; the activity coefficient (368.15 K) was 17.8 ± 1.2.

With `CCCCCCCC` [octane] + CCCC[n+]1ccc(C)cc1.N#CC(=C=[N-])C#N, the activity coefficient (318.15 K) was 46.4 ± 3.2; the activity coefficient (328.15 K) is 43.2 ± 3; the activity coefficient (338.15 K) was 41.1 ± 2.8; the activity coefficient (348.15 K) came out at 38.4 ± 2.6; the activity coefficient (358.15 K) worked out at 36.3 ± 2.5; the activity coefficient (368.15 K) stood at 34.6 ± 2.4.

As to `CCCC(C)=O` [pentan-2-one] + CCCC[n+]1ccc(C)cc1.N#CC(=C=[N-])C#N, the activity coefficient is, setting by setting: (318.15 K) 0.955 ± 0.06; (328.15 K) 0.986 ± 0.062; (338.15 K) 1.01 ± 0.06; (348.15 K) 1.05 ± 0.07; (358.15 K) 1.07 ± 0.07; (368.15 K) 1.1 ± 0.07.

For the compound `CCC(=O)CC` [pentan-3-one] + CCCC[n+]1ccc(C)cc1.N#CC(=C=[N-])C#N, the activity coefficient is, setting by setting: (318.15 K) 0.942 ± 0.059; (328.15 K) 0.976 ± 0.061; (338.15 K) 1.01 ± 0.06; (348.15 K) 1.05 ± 0.07; (358.15 K) 1.07 ± 0.07; (368.15 K) 1.11 ± 0.07.
